How the values were obtained:
[1] = tested on: mice with LPS-induced endotoxemia; assay: LPS-induced endotoxemia in WT mice; type: in vivo, C57BL/6 mice
Experimental: FIG. 4 AdipoAI protects against LPS-induced endotoxemia. Endotoxemia was induced in WT mice by intraperitoneal injection with LPS ([…]), and control littermates were administered with equivalent volumes of PBS. APR or AdipoAI were orally gavaged into mice for 24 hours before LPS challenge and control animals were administered with equivalent volumes of DMSO. (a) mRNA expression levels of pro-inflammatory cytokines in lung, spleen, liver and WAT were measured by qRT-PCR and normalized with GAPDH mRNA levels. Data are shown as mean±SEM (n=6). (b) Survival curve of mice with endotoxemia (n=12). (c) Serum levels of IL-6 and IL-1β were measured by ELISA. Data are expressed as mean±SEM (n=6). (d) Histopathology for lung, spleen, liver and WAT tissues isolated from APR- or AdipoAI-treated mice 24 h before LPS challenge (n=6). Upper panel: Hematoxylin and cosin staining; Lower panel: Immunohistochemical staining for macrophage marker F4/80. Red arrow indicates F4/80 positive cells. One-way ANOVA test for multiple-group comparisons, * vs. DMSO+PBS group, # vs. DMSO+LPS group. */#P<0.05, significant differences between each indicated group. ns, not significant.
The Ethics Committee on the Use and Care of Animals at Tufts University approved the study protocol (Boston, MA, USA). The animals received humane care according to the criteria outlined in the Guide for the Care and Use of Laboratory Animals prepared by the National Academy of Sciences and published by the National Institutes of Health. All experiments involving animals or animal tissue are reported in compliance with the guidelines of ARRIVE and BJP (Kilkenny et al., 2010; McGrath and Lilley, 2015). Experimental protocols and design adhere to BJP guidelines (Curtis et al., 2015). Wild-type (WT, C57BL/6J, Jax #000664), DIO (Jax #380050), and APN KO (Jax #008195) mice were purchased from the Jackson Laboratory. The DIO mice were fed with a high-fat diet (containing 60% kcal from fat; Jackson Laboratory) at 6 weeks of age and later. The WT mice were fed with ordinary diet as normal chow (NC)-fed mice, and APN KO mice were maintained and fed with an NC diet as previously described (Tu et al., 2011). For the LPS-induced endotoxemia model, male C57BL/6 mice aged 8 weeks received oral gavage with APR (50 mg/kg body weight) or AdipoAI (25 mg/kg body weight) for 24 h before by LPS (20 mg/kg body weight) treatment which was administered intraperitoneally whereas control animals were treated with equivalent volumes of normal PBS. Mouse survival in each group was monitored and recorded up to 84 h. All mice were killed at 1 h for detection of activation of inflammatory genes, at 6 h for determination of inflammatory factors in serum, and at 24 h for histological evaluation. Animal data were excluded from experiments based on pre-established criteria of visible abnormal tissue structure during sample harvest or other health issues, including fighting wounds.

[2] = tested on: LPS-stimulated bone marrow-derived macrophages (BMMs); assay: qRT-PCR of IL-6 and IL-1β mRNA in LPS-stimulated BMMs; type: cell-based, C57BL/6J mice; conditions: AdipoAI 5 μM compared with compound 5 (5 μM) and APR (20 μM)
[3] = tested on: LPS-induced Raw264.7 cells; assay: ELISA of IL-6 and IL-1β in supernatants of LPS-induced Raw264.7 cells; type: cell-based; conditions: AdipoAI 5 μM 24 h then LPS 6 h
Experimental: FIG. 2 AdipoAI suppresses LPS-stimulated inflammatory responses in macrophages. (a) Raw264.7 cells or (b) BMMs were pretreated with APR (20 μM) or AdipoAI (5 μM) for 24 h followed by incubation with LPS (100 ng/mL) for additional 6 h for the measurement of IL-6 and IL-1β in supernatants by ELISA. Data were expressed as the mean±SEM at five biological independent experiments. One-way ANOVA test for multiple-group comparisons, * vs. LPS group, *P<0.05, significant differences between each indicated group. (c) PEMs were isolated from C57BL/6J mice (n=5 mice/group) were injected i.p. with ImL 4% thioglycolate solution or AdipoAI (25 mg/kg) for the measurement of IL-6 and IL-1β. The amounts of IL-6 and IL-1β in supernatant were measured by ELISA. Data were expressed as the mean±SEM (n=5). Two-tailed Student's t-test for two groups, *P<0.05, significant differences between each indicated group. (d-f) Impact of AdipoAI on basal (d) and LPS-induced expression of an array of proinflammatory cytokines, chemokines, and receptors (e,f) in Raw264.7 cells (4 groups and 3 biological replicates/group). Data analyses were performed according to the manufacturer's instructions with their web-based software package (www.qiagen.com/us/shop/genes-and-pathways/data-analysis-center overview-page/). […]

[4] = tested on: RAW 264.7 cells; assay: CCK-8 cell viability assay, Example 2; conditions: 2 days, compared with vehicle-treated group
Experimental: RAW 264.7 cells were treated with receptor activator of nuclear factor KB ligand (RANKL) (100 ng/ml) for 2 days with or without AdipoRon (20 μM) or AdipoAI (5 μM) for another 2 days. […] (C) The CCK-8 analysis of RAW 264.7 cells treated with 20 μM AdipoRon or 5 μM AdipoAI for 48 h. (D) The CCK-8 analysis of RAW 264.7 cells' proliferation at different doses of APR and AdipoAI. Cells were treated with 100 ng/ml RANKL for 2 days with or without AdipoRon (5, 20 μM) or AdipoAI (5, 20 μM) every 2 days for 4 days. […] Data are shown as mean±SD., compared with the vehicle-treated group, *P<0.05. **P<0.01. ***P<0.001.
RAW 264.7 cells (2×10^3 cells/well) were seeded in 96-well plates and treated with or without AdipoRon or AdipoAI for 48 hours in a humidified chamber at 37° C. in 5% CO2 and air. Cell viability was determined with the Cell Counting Kit-8 (CCK-8 kit, Dojindo, Santa Clara, CA, USA) following the manufacturer's recommendations. Briefly, CCK-8 solution (10 μL) was added to each well and cells were incubated in dark for 3 hours. Cell viability was determined by measuring the absorbance at 450 nm.

[5] = tested on: AdipoRs; conditions: cited from earlier work

| Compound | serum levels of IL-6 and IL-1β ([1]; 6 h post-LPS administration) | lung histopathology ([1]; 24 h, LPS-challenged mice) | survival rate ([1]; 84 h post-LPS challenge, vehicle 12.5%) [%] | LPS-induced spleen, liver and WAT injury and inflammatory responses ([1]; LPS-challenged mice) | c-Maf mRNA and protein levels in lung, spleen, liver and WAT ([1]; LPS-challenged mice, qPCR and IHC) | expression of TNF-α in tissues ([1]; LPS-induced endotoxemia mice (sentence also covers DIO mice)) | mRNA levels of proinflammatory genes in lung, spleen, WAT, liver ([1]; oral gavage 24 h before LPS challenge) | inhibition of LPS-stimulated IL-6 and IL-1β expression in BMMs [2] | IL-6 and IL-1β protein levels (ELISA) [3] | number of RAW 264.7 cells (CCK-8) at 20 μM [4] | binding affinity for AdipoRs [5] |
| --- | --- | --- | --- | --- | --- | --- | --- | --- | --- | --- | --- |
| COc1ccc(CN2CCC(NC(=O)COc3ccc(C(=O)c4ccc(Cl)cc4)cc3)CC2)cc1 [Compound 3] | reduced serum levels of pro-inflammatory cytokines IL-6 and IL-1β | fewer lung lesions and decreased inflammatory cell infiltration | 40 | alleviated | decreased | did not inhibit the expression of TNF-α | decreased mRNA levels of proinflammatory genes | strongest inhibitory effects | decreased IL-6 and IL-1β protein levels | – | – |
| O=C(COc1ccc(C(=O)c2ccccc2)cc1)NC1CCN(Cc2ccccc2)CC1 [AdipoRon, reference compound] | – | – | – | – | – | – | – | – | – | did not reduce the number of RAW 264.7 cells | low binding affinity for AdipoRs |

— patent publication US12391646B2, “Using adiponectin receptor agonists to treat inflammation and bone diseases in diabetes” (Trustees of Tufts College, priority 2020, dated 2025)
